According to patent US20050059585A1, “Methionine aminopeptidase-2 inhibitors and methods of use thereof” (Praecis Pharmaceuticals Inc., priority 2000, published 2005):

Legend:
D10 = assay: Inhibition of GC derived B cell lymphoma lines in culture; format: cell-based; settings: D10, FL
[1] = system: human lymphoblast SR cells; assay: Inhibition of SR cell line in culture, 3H-thymidine incorporation assay; format: cell-based
Method: […] Incubations were conducted for 3, 5 or 6 days after which cell proliferation relative to vehicle treatment was determined using a ^3H-thymidine incorporation assay. Medium was replaced and fresh drug was added on day 3 for the 5 and 6 day assays.

Pfeiffer = assay: Inhibition of GC derived B cell lymphoma lines in culture; format: cell-based
SR lymphoma tumor = assay: In vivo efficacy in SR lymphoma cell tumors grown in mice
Method: SR lymphoma tumor cells were injected subcutaneously into SCID/NCr female mice. Tumors were measured using a caliper every 3-4 days beginning on day 12 post-implantation of tumor cells. Animals were weighed routinely on the same days as tumor measurments and monitored for clinical signs of any adverse, drug-related side effects. Treatment with Compound 5 or vehicle began on Day 12 for 5 weeks and ended on Day 44. The endpoints evaluated were optimal percent treated/control (% T/C) and tumor growth delay measured at multiple timepoints during the study.

H2 = assay: Inhibition of GC derived B cell lymphoma lines in culture; format: cell-based
Ramos = assay: as above; format: cell-based; settings: Burkitt's lymphoma cell line, 0.01-100 nM
[2] = system: bovine aortic endothelial cell; assay: bovine aortic endothelial cell growth assay (Baec assay); format: cell-based; settings: Bos taurus, BAEC; read-out: IC50 (pM), Baec Assay
Method: The angiogenesis inhibitor compounds of the invention were tested for their ability to modulate human endothelial cell growth and for their ability to modulate the activity of MetAP2. The MetAP2 enzyme assay was performed essentially as described in Turk, B. et al. (1999) Chem. & Bio. 6: 823-833, the entire contents of which are incorporated herein by reference. The bovine aortic endothelial cell growth assay (Baec assay) was performed essentially as described in Turk, B. et al. (supra), the entire contents of which are incorporated herein by reference.

SU-DHL-16 = assay: Inhibition of GC derived B cell lymphoma lines in culture; format: cell-based; settings: Homo sapiens, SU-DHL-16, 120 h, read-out: Growth Inhibition Relative to Vehicle Control, GI50%

CO[C@@H]1[C@H](OC(=O)N[C@@H](C(N)=O)C(C)C)CC[C@]2(CO2)[C@H]1[C@@]1(C)O[C@@H]1CC=C(C)C [Example 5, (1-Carbamoyl-2-methyl-propyl)-carbamic acid-(3R, 4S, 5S, 6R )-5-methoxy-4-[(2R, 3R)-2-methyl-3-(3-methyl-but-2-enyl)-oxiranyl]-1-oxa-spiro[2.5]oct-6-yl ester]
GI50 (D10; B-cell, estimated, read-out: Growth Inhibition Relative to Vehicle Control, GI50%): 0.42 nM | Growth Inhibition Relative to Vehicle Control, Maximum Inhibition (D10; 0.01-100 nM, five or six days): 59% | GI50 ([1]; Homo sapiens, SR, 5 and 6 day assays): 0.5 nM | inhibition of proliferation of the SR cell line ([1]; concentrations from 1-100 nM, relative to vehicle): 59-75% | Maximal inhibition ([1]; five or six days of exposure): greater than 90% | Growth Inhibition Relative to Vehicle Control, Maximum Inhibition (Pfeiffer; DLBCL, 0.01-100 nM, five or six days): 54% | GI50 (Pfeiffer; Homo sapiens, read-out: Growth Inhibition Relative to Vehicle Control, GI50%): 0.27 nM | optimal % T/C (SR lymphoma tumor; oral route, 15 mg/kg): 48% | optimal % T/C (SR lymphoma tumor; oral route, 30 mg/kg): 43% | tumor growth delay (SR lymphoma tumor; orally, 15 mg/kg): 29% | tumor growth delay (SR lymphoma tumor; orally, 30 mg/kg): 28% | tumor growth delay (SR lymphoma tumor; subcutaneous route, 15 mg/kg): 18% | tumor growth delay (SR lymphoma tumor; subcutaneous route, 30 mg/kg): 19% | optimal % T/C (SR lymphoma tumor; subcutaneously, 15 mg/kg): 70% | optimal % T/C (SR lymphoma tumor; subcutaneously, 30 mg/kg): 50% | GI50 (H2; B-cell, read-out: Growth Inhibition Relative to Vehicle Control, GI50%): 0.16 nM | Growth Inhibition Relative to Vehicle Control, Maximum Inhibition (H2; H2, FL, 0.01-100 nM, five or six days): 59% | inhibition of proliferation (in words) (Ramos): inhibited the proliferation of all lymphoma lines tested except for the Ramos line | IC50 [2]: 46 pM | GI50 (SU-DHL-16): 1.9 nM
